US20160082105A1, “Antibody Buffering of a Ligand in Vivo” (ARROWSMITH TECHNOLOGIES CORPORATION, priority 2004, published 2016)
Read-outs that look alike come from different tables or passages of the source.

How the values were obtained:
[1] = Method: Samples were prepared for injection: 4.54 nmol anti-Ox antibody and 2.27 nmol Ox; 4.54 nmol D1.3 control antibody and 2.27 nmol Ox; or no antibody and 2.27 nmol Ox. Each sample was diluted to 1 ml with sterile PBS. The samples were warmed to 37° C., and then infused over 1 minute through the jugular vein cannula in Sprague-Dawley rats as described above. At various timepoints, 0.45 ml of blood was withdrawn and immediately centrifuged to separate out the plasma. 100 μl of plasma were counted directly by placing the plasma into 5 ml of Scintiverse II and counting in a Beckman LS6500 Scintillation Counter. 100 μl plasma was used in bound vs. free Ox experiments described below. For some rats, 0.1 ml of blood minus plasma was analyzed. These samples were first decolorized by incubating at 40° C. in 0.3 ml of Scintigest (Fisher Scientific):isopropanol (1:2 v/v) for one hour. Then 0.2 ml of 30% H2O2 was added dropwise, and the solution was incubated at room temperature for 15 minutes. Pipetting up and down was needed to break up some clumps. The solution was incubated at 40° C. before placing it into 5 ml of Scintiverse II. The samples were allowed to sit overnight before counting to reduce chemiluminescence. Control samples were prepared using known amounts of Ox to aid in analysis.
The rat anti-mouse kappa antibody 187.1 (see Example 1) was isolated from spent culture medium and purified by passage over a Protein A-Sepharose affinity column. Ten g of CNBr-activated Sepharose 4 Fast Flow (Amersham Biosciences) were washed and coupled with 187.1 according to manufacturer's protocol. Two mg 187.1 per 10 g of swelled resin were used.
During the antibody buffering experiments, 100 μl of plasma was loaded onto the 187.1 column immediately after centrifugation. Three ml of PBS followed by three ml of 0.2 M glycine (pH 2.5) were then applied onto the column as described in Example 1. All PBS fractions and all glycine fractions were collected separately for each timepoint and dried down in the SpeedVac. The residue was resuspended in 150 μl PBS and then transferred to a scintillation vial with 5 ml Scintiverse II for counting.
Samples of NQ11/7.12 and Ox were prepared and infused into Sprague-Dawley rats as described above. Blood samples (0.4 ml) were taken at time 1, 10, 20, 50, 90, and 120 minutes. 100 μl plasma were counted directly and 100 μl were placed on a 187.1 column to separate bound and free Ox. At 24 hours and again at 48 hours following the first administration, 2.27 nmol Ox in 0.5 ml PBS was infused over 1 minute through the jugular cannula. Timepoints were again taken and analyzed as above.
Bound and free forms of Ox in plasma fractions from the animals were separated on an affinity column. […] An immobilized rat anti-mouse kappa antibody was used to trap antibody-Ox complexes while free Ox eluted from the column with a PBS wash (free Ox fraction).

[2] = Antibody buffering in plasma: total Ox after jugular infusion; format: in vivo, rat; details: for t1/2 of Ox (FIG. 6): 5 animals per point
Excerpt: Timepoints were again taken and analyzed as above.
To determine its pharmacokinetic behavior, tritiated Ox was infused into a rat through a jugular cannula, and elimination of Ox was followed through blood sampling, separation of the plasma by centrifugation, and scintillation counting of the plasma.

[3] = remark: listed apart in the source
Method: Samples were prepared for injection: 104 pmol anti-Ox antibody and 52 pmol Ox; 104 pmol of D1.3 control antibody and 52 pmol Ox; and 52 pmol Ox alone. Each sample was diluted to 10 μl with sterile PBS. The samples were warmed to 37° C., and then infused over 1 minute through the intraventricular or cisternal cannula in Sprague-Dawley rats. The end of the infusion was designated as time zero (0). At various timepoints, 10 μl of CSF was withdrawn. For one set of rats, the 10 μl CSF was counted directly by placing it into 5 ml of Scintiverse II and counting in a Beckman LS6500 Scintillation Counter. For another set of rats, the 10 μl CSF was diluted into 100 μl ice cold PBS and used in bound vs. free Ox experiments described below.
The rat anti-mouse kappa antibody 187.1 (obtained from American Type Culture Collection (ATCC), Manassas, Va.) (Yelton et al., Hybridoma 1:5-11 (1981)) was isolated from spent culture medium and purified by passage over a Protein A-Sepharose affinity column. Ten grams of CNBr-activated Sepharose 4 Fast Flow (Amersham Biosciences) were washed and coupled with 187.1 according to manufacturer's protocol. Two mg 187.1 per 10 g of swelled resin were used.
During the antibody buffering experiments, the CSF plus ice cold PBS sample were loaded onto the 187.1 column immediately after the dilution. Application to the column of 3 ml of PBS in 0.5 ml increments was followed by application of 3 ml of 0.2 M glycine (pH 2.5) in 0.5 ml increments. All the PBS fractions and all the glycine fractions were collected separately for each timepoint and dried down in the SpeedVac. The residue was resuspended in 150 μl PBS and then transferred to a scintillation vial with 5 ml Scintiverse II for counting.
Samples of NQ11/7.12 and Ox were prepared and infused into the cisternal cannula of Sprague-Dawley rats from Charles River Laboratories as described above for the antibody buffering protocol. Ten μl of CSF was taken from the cisterna magna at time 1, 10, 20, 30, 60, 90 and 120 minutes. The 10 μl CSF samples were either counted directly or diluted into 100 μl ice cold PBS and loaded onto a 187.1 column to separate bound and free Ox. At 24 hours and at 48 hours following the first administration, 52 pmol Ox in 10 μl total volume (diluted with sterile PBS) was infused over 1 minute through the cisterna magna cannula. Timepoints were again taken and analyzed as above.
The principle of chemical equilibrium predicts that the Ox in the CSF should partition between free and antibody-bound forms, and that the free pool should be constantly replenished, staying at a concentration near the antibody's Kd. The Ox in the CSF samples from another set of rats was separated into bound and free forms by passage over an affinity column. […] Antibody-Ox complexes bound to the immobilized rat anti-mouse kappa antibody while free Ox eluted from the column with the PBS wash (free Ox fraction).

[4] = Ox administered alone or with D1.3
[5] = Ox alone re-administered at 24 hours and 48 hours after a single NQ11/7.12 + Ox infusion
[6] = Ox with D1.3, biphasic elimination

For `O=C(O)CCCNC=C1N=C(c2ccccc2)OC1=O` [Ox, 2-phenyl-oxazol-5-one-γ-amino butyrate], the “free Ox elimination half-life in plasma” value [1, 4] was 6.0 ± 1 min, the “initial free Ox concentration in plasma” value [1, 4] was 6.8 nM and the “free Ox concentration in plasma after an hour” value ([1]; Ox administered with NQ11/7.12) was 0.8 nM. For the same compound, the “free Ox elimination half-life in plasma” value ([1]; Ox administered with NQ11/7.12) was 41 ± 6 min, the “initial free Ox concentration in plasma” value ([1]; Ox administered with NQ11/7.12) was 2.2 nM and the “decline of free Ox concentration in plasma compared with NQ11/7.12” value ([1]; Ox administered with NQ16/113.8 or NQ22/16.4) was “declined much more rapidly”. The “free Ox concentration in plasma, long term buffering” value [1, 5] was “quickly normalized”, the “fraction of unbuffered Ox eliminated from plasma before the first timepoint” value ([1]; Ox without anti-Ox antibody) was “more than half” and the “increase in Ox half-life in plasma with anti-Ox antibody” value ([2]; NQ11/7.12 vs D1.3) was “seventeen-fold”. The “t1/2 of Ox (FIG. 6)” value ([2]; Ox administered with NQ11/7.12, jugular vein cannula) was 19.7 min, the “t1/2 of Ox (FIG. 6)” value ([2]; Ox administered with control antibody D1.3, jugular vein cannula) was 1.2 min and the “total Ox pharmacokinetic lifetime in plasma, long term buffering” value [2, 5] was “only small changes”. For the same compound, the “Ox elimination half-life from plasma” value ([2]; Ox alone, jugular infusion) was 1.2 min, the “adverse effects in the animal subjects” value ([2]; Ox infused with NQ11/7.12 or D1.3, rats) was “No adverse effects were noted” and the “Ox elimination half-life from plasma, major (fast) phase” value [2, 6] was 1.2 ± 0.2 min. The “Ox elimination half-life from plasma, smaller (slow) phase” value [2, 6] was 10 ± 2 min, the “Ox elimination half-life from plasma” value ([2]; Ox with twice the molar amount of NQ11/7.12) was 20 ± 2 min and the “Ox concentration in the cellular fraction of blood, of the total Ox concentration in the plasma” value ([2]; rat, in vivo) was 1-2%. For the same compound, the “decrease of free Ox concentration in CSF in an hour” value [3, 4] was 500 fold, the “free Ox elimination half-life in CSF” value [3, 4] was 0.61 min and the “initial free Ox concentration in CSF” value [3, 4] was 1.4 mM. For the same compound, the “decrease of free Ox concentration in CSF over time” value ([3]; Ox administered with NQ11/7.12) was “less than 10 fold”, the “free Ox concentration in CSF after the decrease” value ([3]; Ox administered with NQ11/7.12) was “approximately 6 nM” and the “free Ox elimination half-life in CSF” value ([3]; Ox administered with NQ11/7.12) was 1.55 min. For the same compound, the “initial free Ox concentration in CSF” value ([3]; Ox administered with NQ11/7.12) was 6e-05 mM and the “free Ox elimination in CSF, long term buffering” value ([3]; Ox alone re-administered at 24 hours and 48 hours after a single NQ11/7.12 + Ox cisternal infusion) was “slower elimination profile than Ox administered with D1.3”.
